What was measured:
[1] = system: human mammary gland tumour cell line MCF-7; test: CCK-8 antiproliferative assay, MCF-7; format: cell-based; conditions: for IC50: Homo sapiens, MCF7, 48 h, read-out: IC50 MCF-7; for SI MCF-7 (selectivity index): SI = IC50(MCF-10A)/IC50(MCF-7)
Description: (§1) The antiproliferative activities of target compounds were examined by CCK-8 assay in three cancer cells (human lung cancer cell line A549, human mammary gland tumour cell line MCF-7 and human TNBC cell line MDA-MB-231) and one normal cell (human normal breast cell line MCF10A). All cell lines were sourced from KeyGEN Biotech, […], China, and a standard DMEM medium was applied to all cell cultures then subjected to 24 h incubation at 37 °C in a humidified environment with 5% CO2. After that logarithmic growing cells were plated on 96-well plates with 8,000 cells per well in a […] medium for 24 h incubation at 37 °C with 5% CO2. The DMEM medium with bovine serum was removed from each well. Then, prerequisite target compounds and positive controls were added to different cell lines in a predetermined concentration regiment for 48 h culture.

[2] = Griess assay, NO-releasing capacity; conditions: 10^−4 mol/l compound, L-cysteine, 37 °C; for NO peak releasing: 15-180 min
Description: The NO-releasing capacity of each target compound was determined by the colorimetric method under the instructions of the manufacturer. Preparation of standard curves of 0, 1.56, 3.13, 6.25, 12.5, 25, 50 and 100 μmol/L nitrite nitrogen series standard solution was prepared. 50 μL to 96-well plate was added respectively and then mixed with 50 μL Griess I and Griess II; the absorption value was measured at 540 nm wavelength. A standard curve was drawn from the obtained data. Compounds were formulated into 10^−4 mol/l with PBS (pH = 7.4) and pharmaceutical DMSO. The newly formulated L-cysteine solution 100 μL ([…]) was added and incubated at 37 °C for 15, 30, 45, 60, 90, 120, 150 and180 min, respectively. Griess I and II recovered to room temperature, 50 μL of compounds 7A–E(a–c) were added respectively into the 96-well plate, and then 50 μL of Griess I and 50 μL of Griess II were added in sequence, with the absorbance tested at 540 nm. The amount of NO released was then calculated according to the standard curve.

[3] = system: human lung cancer cell line A549; test: CCK-8 antiproliferative assay, A549; format: cell-based; conditions: Homo sapiens, A549; CCK-8, 48 h, mean ± SD of three experiments
Description: as §1

[4] = system: human normal breast cell line MCF10A; test: CCK-8 assay, normal cells MCF10A; format: cell-based; conditions: MCF-10A, CCK-8, 48 h, mean ± SD of three experiments
Description: as §1

[5] = system: human TNBC cell line MDA-MB-231; test: CCK-8 antiproliferative assay, MDA-MB-231; format: cell-based; conditions: for IC50: Homo sapiens, MDA-MB-231, 48 h, read-out: IC50 MDA-MB-231; for SI MDA-MB-231 (selectivity index): SI = IC50(MCF-10A)/IC50(MDA-MB-231)
Description: as §1

MDA-MB-231 cells [6] = test: Cell cycle analysis (PI staining, flow cytometry); format: cell-based, human; conditions: 72 h; for share of S phase in cell cycle: control 45.39%
Description: This assay was conducted on 6-well plates with 200,000 MDA-MB-231 cells per well and incubated for 24 h at 37 °C with 5% CO2, then the medium from each well was removed and treated by 7Cc in different concentrations (0, 0.41, 0.82, 1.64 μM) for additional 72 h incubation. The desired cell suspension was acquired after attached cells were digested then collected and washed in terms. Cell suspension was then subjected to fixation via 70% ethanol and washed with phosphate-buffered solution (PBS), incubated with 100 μL Rnase A, and placed on water bathed for half an hour at 37 °C. For the final step, 400 μL PI was applied to the mixture in a dark environment at 4 °C for 30 min. Then the distribution of DNA content was measured by flow cytometry (FACS Calibur Becton-Dickinson, Franklin Lake, NJ).

MDA-MB-231 cells [7] = test: Wound healing assay; format: cell-based, human; conditions: 0.41, 0.82, 1.64 μM, 24 h
Description: In this assay, 6-well plates with 200,000 cells per well were used for the culture of MDA-MB-231 cells at 37 °C for 24 h and the medium of each well was removed. Then, 7Cc at predetermined concentrations (0, 0.41, 0.82, 1.64 μM) was added to the cell culture for incubation. After that, sterile pipette tips were utilised to scratch cell culture in 6-well plates in an even fashion, and detached cells were washed away by PBS with culture medium replaced anew afterward. After 24 h of additional incubation, cell cultures were photographed and migration distance examined accurately.

MDA-MB-231 cells [8] = test: Transwell assay; format: cell-based, human; conditions: 0.41, 0.82, 1.64 μM, 24 h, concentration-dependent
Description: Then, cells attached to the upper surface of the membrane were removed while migrated or invaded cells of the lower membrane surface were added 0.1% crystal violet staining for 30 min. Then, migrated or invaded cells of the lower chamber were photographed and counted.

MDA-MB-231 cells [9] = test: Cell apoptosis assay (annexin V-FITC/PI, flow cytometry); format: cell-based, human; conditions: 72 h, negative control 5.98%
Description: This assay was performed on 6-well plates with 200,000 MDA-MB-231 cells per well and incubated for 24 h at 37 °C with 5% CO2, then the medium from each well was removed and treated by 7Cc in different concentrations (0, 0.41, 0.82, 1.64 μM) for additional 72 h incubation. Subsequently, 500 μL of binding buffer was applied to suspend and collect compound treated cells. Then, 5 μL of both annexin V-fluorescein isothiocyanate (Annexin V-FITC) and propidium iodide (PI) was applied to the mixture and this reaction was placed under total dark at room temperature for 10 min. Cell apoptosis was examined by flow cytometry.

MDA-MB-231 cells [10] = test: Mitochondrial membrane potential assay (JC-1, flow cytometry); format: cell-based, human; conditions: 48 h, control 3.67%
Description: Briefly, MDA-MB-231 cells in logarithmic growth were placed in 6-well plates with 200,000 cells per well for 24 h before a medium remove and then incubated with 7Cc at predetermined concentrations (0, 0.41, 0.82, 1.64 μM) for 48 h. Cells were collected after and washed with PBS. JC-1 dye was added to cells for staining under total dark conditions according to the manufacturer's instructions (KGA601, KeyGEN Biotech, Nanjing, China). The percentage of cells with collapsed mitochondrial membrane potentials was detected by flow cytometry.

MDA-MB-231 cells [11] = test: Comet assay (DNA damage); format: cell-based, human; conditions: 0.41, 0.82, 1.64 μM, 72 h, MDA-MB-231, neutral comet assay
Description: All DNA damage sustained in this assay was measured via Comet Assay Kit (Keygen, Nanjing, China) according to the manufacturer’s instructions. 7Cc was added to MDA-MB-231 cells at predetermined concentrations (0, 0.41, 0.82, 1.64 μM) for 72 h. These cells were then collected and fixed on CometSlide at 4 °C for 15 min. After that, the cells were set under lysis solution at 4 °C for 90 min and these slides were electrophoresed for 20 min, fixed in ethanol for 5 min, and then stained with Vista Green DNA Dye. The final results were acquired by a fluorescence microscope.

MDA-MB-231 cells [12] = test: Adhesion assay; format: cell-based, human; conditions: 0.41, 0.82, 1.64 μM, 72 h, dose-dependent
Description: MDA-MB-231 cells were incubated in different plates and then treated with 7Cc in different concentrations (0, 0.41, 0.82, 1.64 μM) for 72 h. After that, the CAM ([…]) stain treated serum-free medium was applied and 96-well plates were seeded with 100 μL already prepared cell suspension at 2,000 cells per good concentration for an hour. Then, plates were washed by PBS, fixed via 3.7% formaldehyde, another PBS wash, and photographed by fluorescence microscope.

Row | SMILES | IC50 [1] | SI MCF-7 (selectivity index) [1] | NO peak releasing [2] | IC50 [3] | IC50 [4] | IC50 [5] | SI MDA-MB-231 (selectivity index) [5] | NO release at 180 min [2] | also measured
1 | COC1=CC2[C@H]3Cc4ccc(OC)c(OC(=O)CCC(=O)OCCCCOc5no[n+]([O-])c5S(=O)(=O)c5ccccc5)c4[C@@]2(CCN3C)CC1=O (stereo partly drawn) [7Ca, 4–(4-((4-(((4bs,9R)-3,7-Dimethoxy-11-methyl-6-oxo-6,8a,9,10-tetrahydro-5H-9,4b-(epiminoethano)phenanthren-4-yl)oxy)-4-oxobutanoyl)oxy)butoxy)-3-(phenylsulfonyl)-1,2,5-oxadiazole 2-oxide] | 2550 ± 140 nM | 15.95 | exceeding 40 μmol/L | 2970 ± 140 nM | 40700 ± 2790 nM | 2260 ± 190 nM | 18 |  | 
2 | COC1=CC2[C@H]3Cc4ccc(OC)c(OC(=O)c5ccccc5C(=O)OCCOc5no[n+]([O-])c5S(=O)(=O)c5ccccc5)c4[C@@]2(CCN3C)CC1=O (stereo partly drawn) [7Ac, 4–(2-((2-((((4bs,9R)-3,7-Dimethoxy-11-methyl-6-oxo-6,8a,9,10-tetrahydro-5H-9,4b-(epiminoethano)phenanthren-4-yl)oxy)carbonyl)benzoyl)oxy)ethoxy)-3-(phenylsulfonyl)-1,2,5-oxadiazole 2-oxide] | 5870 ± 420 nM | 3.67 | exceeding 40 μmol/L | 2330 ± 150 nM | 21500 ± 880 nM | 1620 ± 150 nM | 13.30 |  | 
3 | COC1=CC2[C@H]3Cc4ccc(OC)c(OC(=O)c5ccccc5C(=O)OCCCCOc5no[n+]([O-])c5S(=O)(=O)c5ccccc5)c4[C@@]2(CCN3C)CC1=O (stereo partly drawn) [7Cc, 4–(4-((2-((((4bs,9R)-3,7-Dimethoxy-11-methyl-6-oxo-6,8a,9,10-tetrahydro-5H-9,4b-(epiminoethano)phenanthren-4-yl)oxy)carbonyl)benzoyl)oxy)butoxy)-3-(phenylsulfonyl)-1,2,5-oxadiazole 2-oxide] | 1750 ± 150 nM | 15.73 |  | 1940 ± 50 nM | 27500 ± 2340 nM | 820 ± 20 nM | 33.57 | 39.27 µmol/L | share of S phase in cell cycle (MDA-MB-231 cells [6]; 0.41 μM): 49.10%; share of S phase in cell cycle (MDA-MB-231 cells [6]; 0.82 μM): 57.27%; share of G2 phase in cell cycle (MDA-MB-231 cells [6]; 1.64 μM, control 10.09%): 5.76%; share of G1 phase in cell cycle (MDA-MB-231 cells [6]; 1.64 μM, control 44.52%): 30.09%; share of S phase in cell cycle (MDA-MB-231 cells [6]; 1.64 μM): 64.15%; time at which top volume of NO released was reached [2]: 90 min; migration (wound closure) (MDA-MB-231 cells [7]): inhibited migration; invasion (cells permeated through transwell membrane) (MDA-MB-231 cells [8]): notably reduced the number of cells permeated through the membrane; apoptotic portions of cells (two quadrants from the right side) (MDA-MB-231 cells [9]; 0.41 μM): 16.66%; apoptotic portions of cells (two quadrants from the right side) (MDA-MB-231 cells [9]; 0.82 μM): 26.62%; apoptotic portions of cells (two quadrants from the right side) (MDA-MB-231 cells [9]; 1.64 μM): 53.28%; percentage of cells with collapsed mitochondrial membrane potential (JC-1) (MDA-MB-231 cells [10]; 0.41 μM): 16.40%; percentage of cells with collapsed mitochondrial membrane potential (JC-1) (MDA-MB-231 cells [10]; 0.82 μM): 31.01%; percentage of cells with collapsed mitochondrial membrane potential (JC-1) (MDA-MB-231 cells [10]; 1.64 μM): 49.98%; DNA damage (double-strand DNA breaks, comet tail) (MDA-MB-231 cells [11]): significant presence of endogenous DSBs was observed; cellular adhesion (MDA-MB-231 cells [12]): clear prevention of TNBC cellular adhesion
4 | COC1=CC2C3Cc4ccc(OC)c(OC(=O)CCC(=O)OCCCOc5no[n+]([O-])c5S(=O)(=O)c5ccccc5)c4C2(CCN3C)CC1=O (stereo not drawn) [7Ba] | 19000 ± 1330 nM | >2.64 |  | 9840 ± 470 nM | > 50000 nM | 24200 ± 1970 nM | >2.06 | 68.4 µmol/L | 
5 | COC1=CC2[C@H]3Cc4ccc(OC)c(OC(=O)CCC(=O)OCCCCCOc5no[n+]([O-])c5S(=O)(=O)c5ccccc5)c4[C@@]2(CCN3C)CC1=O (stereo partly drawn) [7Da, 4-((5-((4-(((4bs,9R)-3,7-Dimethoxy-11-methyl-6-oxo-6,8a,9,10-tetrahydro-5H-9,4b-(epiminoethano)phenanthren-4-yl)oxy)-4-oxobutanoyl)oxy)pentyl)oxy)-3-(phenylsulfonyl)-1,2,5-oxadiazole 2-oxide] | 1800 ± 110 nM | 13.74 | exceeding 40 μmol/L | 2790 ± 70 nM | 24700 ± 1670 nM | 920 ± 10 nM | 26.89 |  | 
